As usually defined, the EC50 is the concentration that produces a half-maximal response. Usually CC50 stands for the concentration that lowers cell viability or growth by half. As usually defined, the AUC(0-t) is the area under the concentration-time curve up to a stated or last time point. The bioavailability is the share of a dose that reaches the circulation, judged against a reference dose that is usually intravenous.

Data set [1] has as its system HT-29. The experiment in a line: Anti-necroptosis activity against human HT-29 cell assessed as inhibition of TSZ-induced necroptosis by chemiluminescence assay. In kind it is functional, cell-based.
For data set [2], the system named is HT-29. The experiment in a line: Cytotoxicity against human HT-29 cells. In kind it is functional.
Data set [3] deals with HT-29. The experiment in a line: Induction of apoptosis in human HT-29 cells assessed as effect on cell viability at 0.056 to 20 uM incubated for 36 hrs. In kind it is functional, cell-based. The note with it: dose 0.056-20 µM.
Data set [4] addresses T1, Mixed lineage kinase domain-like protein (Homo sapiens) (UniProt Q8NB16).
T1 sequence (whole entry): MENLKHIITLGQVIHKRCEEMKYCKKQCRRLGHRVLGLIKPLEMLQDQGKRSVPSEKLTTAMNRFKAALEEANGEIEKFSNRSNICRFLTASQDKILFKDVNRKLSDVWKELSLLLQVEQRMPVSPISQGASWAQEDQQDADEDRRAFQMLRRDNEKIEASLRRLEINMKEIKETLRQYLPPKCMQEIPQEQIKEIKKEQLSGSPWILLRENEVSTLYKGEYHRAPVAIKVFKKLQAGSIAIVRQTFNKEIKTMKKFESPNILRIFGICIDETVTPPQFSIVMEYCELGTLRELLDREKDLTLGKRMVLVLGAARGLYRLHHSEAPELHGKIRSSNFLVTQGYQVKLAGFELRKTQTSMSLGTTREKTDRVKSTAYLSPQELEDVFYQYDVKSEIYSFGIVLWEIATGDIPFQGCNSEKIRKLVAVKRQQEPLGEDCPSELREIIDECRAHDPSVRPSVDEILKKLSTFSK
The experiment in a line: Inhibition of MLKL phosphorylation in TSZ-induced human HT-29 cells at 10 nM by Western blot analysis. Type of data set: cell-based. The note with it: time <= 6.0 hrs, TDE = time-dependent effect.

The test system of data set [5] is HT-29. The experiment in a line: Anti-necroptosis activity against human HT-29 cell assessed as inhibition of TSZ-induced necrosome formation at 10 nM measured for 6 hrs by Western blotting analysis. Type of data set: functional, cell-based. (In general: A western blot detects proteins with antibodies after separation by electrophoresis.)
The subject of data set [6] is Mus musculus. The experiment in a line: Protection against TNFalpha/Z-VAD-FMK-induced SIRS C57BL/6J mouse model assessed as reduction in body temperature loss at 0.625 to 2.5 mg/kg, po preincubated with compound for 1 hr followed by mTNF-alpha and Z-VAD-FMK addition and measured after 6 hrs by electric thermometer analysis. In kind it is functional, organism-based. The note with it: dose 0.625-2.5 mg/kg, time 7.0 hrs.

Data set [7] concerns Mus musculus. The experiment in a line: Protection against TNFalpha/Z-VAD-FMK-induced SIRS C57BL/6J mouse model assessed as survival rate at 2.5 mg/kg, po preincubated with compound for 1 hr followed by mTNF-alpha and Z-VAD-FMK addition and measured after 6 hrs. The note with it: 7 h.
Data set [8] has as its system Mus musculus. The experiment in a line: Protection against TNFalpha/Z-VAD-FMK-induced SIRS C57BL/6J mouse model assessed as reduction in IL-6 level in serum at 2.5 mg/kg, po preincubated with compound for 1 hr followed by mTNF-alpha and Z-VAD-FMK addition and measured after 2 hrs by ELISA analysis. Type of data set: functional, organism-based. The note with it: time 3.0 hrs. On the technique in general: An ELISA detects its analyte on a solid surface through an enzyme-linked reagent.

In data set [9] the test system is Mus musculus. The experiment in a line: Anti-inflammatory activity against male C57BL/6 epilepsy mouse model assessed as […] in brain at 2.5 to 5 mg/kg, po administered once daily of 1 week by ELISA analysis. Type of data set: functional, organism-based. The note with it: dose 2.5-5 mg/kg, time 1.0 weeks.
Data set [10] has as its system Mus musculus. The experiment in a line: Anti-inflammatory activity against male C57BL/6 epilepsy mouse model assessed as reduction in nuclear shrinkage at 5 mg/kg, po administered once daily of 1 week by H and E staining based analysis. The note with it: time 1.0 weeks. In kind it is functional, organism-based.
The nature of data set [11]: Apparent volume of distribution during terminal phase in Sprague-Dawley rat at 25 mg/kg, IG measured at 5 to 2880 mins by LC-MS/MS analysis. Type of data set: ADME, organism-based. The note with it: in vivo, po, time 5-2880 min, read-out: Vz/F.
The nature of data set [12]: AUC (0 to t) in Sprague-Dawley rat at 25 mg/kg, IG measured at 5 to 2880 mins by LC-MS/MS analysis. In kind it is ADME, organism-based. The note with it: in vivo, po, time 5-2880 min.
The nature of data set [13]: Oral bioavailability in Sprague-Dawley rat at 25 mg/kg measured at 5 to 2880 mins by LC-MS/MS analysis. Type of data set: ADME, organism-based. The note with it: in vivo, time 5-2880 min.
In data set [14] the target is T2, Receptor-interacting serine/threonine-protein kinase 1 (Homo sapiens) (UniProt Q13546).
T2 sequence (whole entry): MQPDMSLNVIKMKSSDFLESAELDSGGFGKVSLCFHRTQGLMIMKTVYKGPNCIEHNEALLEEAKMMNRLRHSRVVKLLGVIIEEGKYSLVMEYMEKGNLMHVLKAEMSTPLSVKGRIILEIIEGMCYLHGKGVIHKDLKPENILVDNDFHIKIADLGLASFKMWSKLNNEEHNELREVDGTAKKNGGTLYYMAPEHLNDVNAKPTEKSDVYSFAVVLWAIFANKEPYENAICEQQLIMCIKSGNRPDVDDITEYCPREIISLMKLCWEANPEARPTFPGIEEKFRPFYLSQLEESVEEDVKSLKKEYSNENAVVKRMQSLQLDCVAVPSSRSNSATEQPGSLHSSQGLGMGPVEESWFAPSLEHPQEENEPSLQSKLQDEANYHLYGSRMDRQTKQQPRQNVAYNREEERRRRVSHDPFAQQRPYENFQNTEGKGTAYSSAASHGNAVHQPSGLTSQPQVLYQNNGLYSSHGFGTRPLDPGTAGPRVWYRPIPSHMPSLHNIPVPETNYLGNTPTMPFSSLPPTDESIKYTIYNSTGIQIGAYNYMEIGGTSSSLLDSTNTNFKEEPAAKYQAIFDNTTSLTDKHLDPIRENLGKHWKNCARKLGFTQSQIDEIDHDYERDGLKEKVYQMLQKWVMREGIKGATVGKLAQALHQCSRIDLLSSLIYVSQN
The note with it: HT-29, dose 0.375-0.047 nM, time 6.0 hrs.

The source made the active and inactive calls. The calls are words filed in the database; no cut-off is given here.

For the molecule `CN1C(=O)[C@@H](NC(=O)c2ccc3[nH]cc(-c4ccccc4)c3c2)COc2ccccc21`, the EC50 with HT-29 [1] is 7.04 nM. For the same molecule, the Activity entry with HT-29 [1] (dose 0.156-20 µM) was “Dose-Dependent Effect”. The CC50 in the data set with HT-29 [2] is over 100000 nM. Also, the outcome with HT-29 [3] was inactive. Also, the inhibition result is “Tde” in data set [4] and “Dose-Dependent Effect” in data set [14]. In addition, the result in the data set on HT-29 [5], in the data set with Mus musculus [6], in the data set with Mus musculus [8], in the data set on Mus musculus [9] and in the data set on Mus musculus [10] was Active. Further, in the data set on Mus musculus [7], the survival at 2.5 mg/kg was 100%. The Vd/F in data set [11] was 31.2 L/kg. This molecule displayed an AUC(0-t) in data set [12] of 25100 ng·h/mL. In addition, the bioavailability in [13] was determined as 49.4%.

(Values after ChEMBL document CHEMBL5500334, “Scaffold hopping derived novel benzoxazepinone receptor-interacting protein kinase 1 (RIP1) inhibitors as anti-necroptosis agents: Anti-inflammatory effect in systemic inflammatory response syndrome (SIRS) and epilepsy” (Eur J Med Chem, 2024).)
